In PubChem BioAssay (NCI):
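Dose response: 5 concentrations. Exposure: 48 h. Format: 96-well plates. Endpoint: linear interpolation; highest concentration if not reached. Definition used: TGI = concentration required for complete inhibition of growth.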

Columns and labels:
Assay in all cases: inhibition of tumour cell growth, NCI panel, 48 h
[1] = system: SN12C renal
[2] = system: NCI-H23 lung
[3] = system: MOLT-4 leukemia
[4] = system: 786-0 renal
[5] = system: SW-620 colon
[6] = system: COLO 205 colon
[7] = system: T-47D breast
[8] = system: CAKI-1 renal
[9] = system: M14 melanoma
[10] = system: HOP-62 NSCLC
[11] = system: K-562 leukemia
[12] = system: OVCAR-4 ovarian
[13] = system: NCI-H460 lung
[14] = system: NCI-H522 lung
[15] = system: MDA-MB-435
[16] = system: SF-268 CNS
[17] = system: SK-MEL-28 melanoma
[18] = system: UO-31 renal
[19] = system: EKVX NSCLC
[20] = system: OVCAR-8 ovarian
[21] = system: SNB-19 CNS
[22] = system: SK-OV-3 ovarian
[23] = system: PC-3 prostate
[24] = system: RPMI-8226 leukemia
[25] = system: HS 578T breast
[26] = system: MCF7 breast
[27] = system: OVCAR-5 ovarian
[28] = system: HCT-15 colon
[29] = system: HCC-2998 colon
[30] = system: SF-295 CNS
[31] = system: DU-145 prostate
[32] = system: SK-MEL-2 melanoma
[33] = system: NCI-H226 lung
[34] = system: KM12 colon
[35] = system: HL-60(TB) leukemia
[36] = system: SK-MEL-5 melanoma
[37] = system: BT-549 breast
[38] = system: UACC-62 melanoma
[39] = system: SF-539 CNS
[40] = system: RXF 393 renal
[41] = system: CCRF-CEM leukemia
[42] = system: OVCAR-3 ovarian
[43] = system: SNB-75 CNS
[44] = system: SR leukemia
[45] = system: NCI/ADR-RES ovarian
[46] = system: A498 renal
[47] = system: U251 CNS
[48] = system: A549 NSCLC
[49] = system: IGROV1 ovarian
[50] = system: MDA-MB-231 breast
[51] = system: HCT-116 colon
[52] = system: HT29 colon
[53] = system: ACHN renal
[54] = system: LOX IMVI melanoma
[55] = system: TK-10 renal
[56] = system: UACC-257 melanoma
[57] = system: HOP-92 NSCLC

SMILES: CC(C)(O)[C@@H]1CC[C@](C)(C2[C@@H](O)C[C@@]3(C)C4C[C@H](OC5OCC(O)C(O)C5O)[C@H]5C(C)(C)[C@@H](OC6OCC(O)C(O)C6OC6OCC(O)C(O)C6O)CC[C@@]56C[C@@]46CC[C@]23C)O1 (some centres undefined)
- TGI [1]: > 100 µM
- TGI [2]: > 100 µM
- TGI [3]: > 100 µM
- TGI [4]: > 100 µM
- TGI [5]: > 100 µM
- TGI [6]: > 100 µM
- TGI [7]: > 100 µM
- TGI [8]: > 100 µM
- TGI [9]: > 100 µM
- TGI [10]: > 100 µM
- TGI [11]: > 100 µM
- TGI [12]: > 100 µM
- TGI [13]: > 100 µM
- TGI [14]: > 100 µM
- TGI [15]: > 100 µM
- TGI [16]: > 100 µM
- TGI [17]: > 100 µM
- TGI [18]: > 100 µM
- TGI [19]: > 100 µM
- TGI [20]: > 100 µM
- TGI [21]: > 100 µM
- TGI [22]: > 100 µM
- TGI [23]: > 100 µM
- TGI [24]: > 100 µM
- TGI [25]: > 100 µM
- TGI [26]: > 100 µM
- TGI [27]: > 100 µM
- TGI [28]: > 100 µM
- TGI [29]: > 100 µM
- TGI [30]: > 100 µM
- TGI [31]: > 100 µM
- TGI [32]: > 100 µM
- TGI [33]: > 100 µM
- TGI [34]: > 100 µM
- TGI [35]: > 100 µM
- TGI [36]: > 100 µM
- TGI [37]: > 100 µM
- TGI [38]: > 100 µM
- TGI [39]: > 100 µM
- TGI [40]: > 100 µM
- TGI [41]: > 100 µM
- TGI [42]: > 100 µM
- TGI [43]: > 100 µM
- TGI [44]: > 100 µM
- TGI [45]: > 100 µM
- TGI [46]: > 100 µM
- TGI [47]: > 100 µM
- TGI [48]: > 100 µM
- TGI [49]: > 100 µM
- TGI [50]: > 100 µM
- TGI [51]: > 100 µM
- TGI [52]: > 100 µM

SMILES: CCOC(=O)C(C)c1nc2cc3cccnc3c(Cl)c2[nH]c1=O (centres undefined)
- TGI [2]: > 100 µM
- TGI [4]: > 100 µM
- TGI [5]: > 100 µM
- TGI [6]: > 100 µM
- TGI [7]: > 100 µM
- TGI [53]: > 100 µM
- TGI [8]: > 100 µM
- TGI [9]: > 100 µM
- TGI [10]: > 100 µM
- TGI [11]: > 100 µM
- TGI [12]: > 100 µM
- TGI [13]: > 100 µM
- TGI [54]: > 100 µM
- TGI [15]: > 100 µM
- TGI [16]: > 100 µM
- TGI [17]: > 100 µM
- TGI [18]: > 100 µM
- TGI [19]: > 100 µM
- TGI [20]: > 100 µM
- TGI [21]: > 100 µM
- TGI [22]: > 100 µM
- TGI [55]: > 100 µM
- TGI [23]: > 100 µM
- TGI [24]: > 100 µM
- TGI [25]: > 100 µM
- TGI [26]: > 100 µM
- TGI [56]: > 100 µM
- TGI [28]: > 100 µM
- TGI [29]: > 100 µM
- TGI [30]: > 100 µM
- TGI [31]: 50 µM
- TGI [32]: > 100 µM
- TGI [33]: > 100 µM
- TGI [34]: > 100 µM
- TGI [35]: > 100 µM
- TGI [36]: > 100 µM
- TGI [37]: > 100 µM
- TGI [38]: > 100 µM
- TGI [39]: > 100 µM
- TGI [40]: > 100 µM
- TGI [41]: > 100 µM
- TGI [43]: > 100 µM
- TGI [44]: > 100 µM
- TGI [45]: > 100 µM
- TGI [57]: > 100 µM
- TGI [46]: > 100 µM
- TGI [47]: > 100 µM
- TGI [49]: > 100 µM
- TGI [50]: > 100 µM
- TGI [51]: > 100 µM
- TGI [52]: > 100 µM

SMILES: O=C(Cc1ccccc1CCO)NCCc1ccccc1
- TGI [1]: > 100 µM
- TGI [2]: > 100 µM
- TGI [3]: > 100 µM
- TGI [4]: > 100 µM
- TGI [5]: > 100 µM
- TGI [6]: > 100 µM
- TGI [7]: > 100 µM
- TGI [53]: > 100 µM
- TGI [8]: > 100 µM
- TGI [9]: > 100 µM
- TGI [10]: > 100 µM
- TGI [11]: > 100 µM
- TGI [12]: > 100 µM
- TGI [13]: > 100 µM
- TGI [14]: > 100 µM
- TGI [15]: > 100 µM
- TGI [16]: > 100 µM
- TGI [17]: > 100 µM
- TGI [18]: > 100 µM
- TGI [19]: > 100 µM
- TGI [20]: > 100 µM
- TGI [21]: > 100 µM
- TGI [22]: > 100 µM
- TGI [55]: > 100 µM
- TGI [23]: > 100 µM
- TGI [24]: > 100 µM
- TGI [25]: > 100 µM
- TGI [26]: > 100 µM
- TGI [56]: > 100 µM
- TGI [27]: > 100 µM
- TGI [28]: > 100 µM
- TGI [29]: > 100 µM
- TGI [30]: > 100 µM
- TGI [31]: > 100 µM
- TGI [32]: > 100 µM
- TGI [33]: > 100 µM
- TGI [34]: > 100 µM
- TGI [35]: > 100 µM
- TGI [36]: > 100 µM
- TGI [37]: > 100 µM
- TGI [38]: > 100 µM
- TGI [39]: > 100 µM
- TGI [40]: > 100 µM
- TGI [41]: > 100 µM
- TGI [42]: > 100 µM
- TGI [43]: > 100 µM
- TGI [44]: > 100 µM
- TGI [45]: > 100 µM
- TGI [57]: > 100 µM
- TGI [46]: > 100 µM
- TGI [47]: > 100 µM
- TGI [48]: > 100 µM
- TGI [49]: > 100 µM
- TGI [50]: > 100 µM
- TGI [51]: > 100 µM
- TGI [52]: > 100 µM
